Assays:
S. aureus (Sa) = test: Broth microdilution minimum inhibitory concentration (MIC); assay type: cell-based; details: S. aureus, growth medium with sodium bicarbonate; for MIC: Staphylococcus aureus, read-out: Sa + bicarb MIC
Procedure, shortened: (§1)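 CLSI broth microdilution (M07-A9, slightly modified) in CAMHB, optionally with 6.25 or 25 mM sodium bicarbonate or 0–50% heat-inactivated human serum. Two-fold serial dilutions (8 concentrations, triplicate) were inoculated at 5×10^4 CFU/well from 0.5 McFarland cultures grown at 35±2 °C.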

A. baumannii (Ab) = test: as above; assay type: cell-based; details: A. baumannii, growth medium with sodium bicarbonate; for MIC: Acinetobacter baumannii, read-out: Ab + bicarb MIC
Procedure, shortened: as §1

P. aeruginosa (Pa) = test: as above; assay type: cell-based; details: P. aeruginosa, growth medium with sodium bicarbonate; for MIC: Pseudomonas aeruginosa, read-out: Pa MIC + bicarb
Procedure, shortened: as §1

E. faecalis (Ef) = test: as above; assay type: cell-based; details: E. faecalis, growth medium with sodium bicarbonate; for MIC: Enterococcus faecalis, read-out: Ef + bicarb MIC
Procedure, shortened: as §1

E. coli (Ec) = test: as above; assay type: cell-based; details: E. coli, growth medium with sodium bicarbonate; for MIC: Escherichia coli, read-out: E. coli + bicarb MIC
Procedure, shortened: as §1

[1] = system: E. coli S30 extract (bacterial protein synthesis); test: E. coli S30 extract coupled transcription-translation luciferase assay (inhibition of bacterial protein synthesis); assay type: biochemical; details: % inhibition @ 1 μM, read-out: S30 IC50 (μM/% inhib.)
Procedure, shortened: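 Cell-free coupled transcription-translation in E. coli S30 circular-DNA extract, with pBESTluc plasmid as template and complete amino acid mix. Eight 2-fold compound dilutions were incubated with the extract 1 h at 37 °C, chilled, then luciferase luminescence was read. % inhibition was taken relative to no-inhibitor wells; no-DNA wells gave background.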

[2] = target: Rabbit Reticulocyte Lysate (eukaryotic protein synthesis); test: Rabbit reticulocyte lysate luciferase assay (inhibition of eukaryotic protein synthesis); assay type: biochemical; details: % inhibition @ 1 μM, read-out: Rabbit reticulocyte IC50 (μM/% inhib.)
Procedure, shortened: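 Nuclease-treated rabbit reticulocyte lysate translating luciferase control RNA, with complete amino acids, was incubated at 30° C. for 90 minutes with 2-fold serial compound dilutions. Luminescence was measured after adding luciferase reagent. % inhibition was relative to water controls, with no-RNA wells as background.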

| SMILES | Sa + bicarb MIC (S. aureus (Sa)) | Ab + bicarb MIC (A. baumannii (Ab)) | Pa MIC + bicarb (P. aeruginosa (Pa)) | Ef + bicarb MIC (E. faecalis (Ef)) | E. coli + bicarb MIC (E. coli (Ec)) | IC50 [1] | IC50 [2] | MIC (S. aureus (Sa)) | MIC (A. baumannii (Ab)) | MIC (P. aeruginosa (Pa)) | MIC (E. faecalis (Ef)) | MIC (E. coli (Ec)) |
| --- | --- | --- | --- | --- | --- | --- | --- | --- | --- | --- | --- | --- |
| CC(Cc1ccc(-n2ccc(NC(=O)N3CCN(C(=O)C(C)(C)N)CC3)nc2=O)cc1)N1CC[C@H](CN)C1 (stereo partly shown) [Compound 378] | +++ (An MIC value (μg/mL) that is less than 8 μg/mL) | + (An MIC value (μg/mL) that is 32 μg/mL or greater) | + (An MIC value (μg/mL) that is 32 μg/mL or greater) | ++ (An MIC value (μg/mL) that is 8 μg/mL or greater and less than 32 μg/mL) | +++ (An MIC value (μg/mL) that is less than 8 μg/mL) | < 0.5 µM | > 1 µM | – | – | – | – | – |
| CC(Cc1ccc(-n2ccc(NC(=O)N3CCN(C(=O)C(C)(C)N)CC3)nc2=O)cc1)N1CCC(C2CNC2)CC1 (stereo not shown) [Compound 379] | – | – | – | – | – | > 1 µM | > 1 µM | < 8 µg/mL | > 32 µg/mL | > 32 µg/mL | > 32 µg/mL | < 8 µg/mL |
| CC(C)(N)C(=O)N1CCN(C(=O)Nc2ccn(-c3ccc(CN4CC(N5CC(N)C5)C4)cc3)c(=O)n2)CC1 [Compound 380] | – | – | – | – | – | < 0.5 µM | > 1 µM | < 8 µg/mL | > 32 µg/mL | > 32 µg/mL | 8 to 32 µg/mL | < 8 µg/mL |
| CC(Cc1ccc(-n2ccc(NC(=O)N3CCN(C(=O)C(C)(C)N)CC3)nc2=O)cc1)N1CC[C@@H](CN)C1 (stereo partly shown) [Compound 382] | – | – | – | – | – | < 0.5 µM | > 1 µM | < 8 µg/mL | > 32 µg/mL | 8 to 32 µg/mL | < 8 µg/mL | < 8 µg/mL |

— patent US12503452B2 (Curza Global, LLC, priority 2019, dated 2025)
